Assay results from US20230015532A1, “PHARMACEUTICAL COMPOSITION, FOR PREVENTING OR TREATING FIBROSIS, COMPRISING PHEOPHORBIDE COMPOUND AS ACTIVE INGREDIENT” (PAEAN BIOTECHNOLOGY INC., priority 2019, published 2023).

Tests used:
[1] = system: collagen 1A, fibronectin and alpha-smooth muscle actin proteins in CCD8-Lu cells; test: Anti-fibrotic activity by Western blotting (Experimental Example 3.1); format: cell-based, human; settings: 0.06-5 μM, 6 hours after TGF-β, 18 hours
Protocol: A cell-based assay experiment was performed using Western blotting assay to analyze the anti-fibrotic activity of pheophorbide a.
CCD8-Lu cells, which are human lung-derived fibroblasts, were cultured in the DMEM medium containing 10% FBS. Then, about 2×10^5 cells were inoculated into a 6 well plate and cultured for 24 hours, and subjected to the deficient condition in the DMEM medium from which FBS was removed for about 24 hours.
24 hours later, following the treatment with TGF-β at a concentration of 5 ng/ml, fibrosis of cells was induced for 6 hours. After 6 hours, the cells were treated with pheophorbide a obtained in Preparation Example 2 and further cultured for 18 hours (FIG. 2). Then, the negative control group was treated with nothing, the positive control group was treated with TGF-β alone at a concentration of 5 ng/ml, and the experimental groups were treated with TGF-β at a concentration of […] and 6 hours later, with pheophorbide a at each concentration of 0.06 μM, 0.12 μM, 0.25 μM, 0.5 μM, 2.5 μM and 5 μM. […]
(§1) The separated supernatant was obtained and transferred to a new microtube and then the protein was quantified using a bicinchoninic acid assay (BCA assay) protein quantitative kit. […]

[2] = system: α-SMA, collagen 1A and fibronectin in CCD8-Lu cells; test: Comparison of anti-fibrotic activity by Western blotting (Experimental Example 4.2); format: cell-based, human; settings: 2.5 μM and 5 μM, 6 hours after 5 ng/ml TGF-β, 18 hours
Protocol: A cell-based analysis experiment was performed to analyze the anti-fibrotic activity of pheophorbide a in comparison with nintedanib and pirfenidone, which were previously approved as a therapeutic agent for pulmonary fibrosis, using Western blotting assay.
CCD8-Lu cells, which are human lung-derived fibroblasts, were cultured in the DMEM medium containing 10% FBS. About 2×10^5 cells were then inoculated into a 6 well plate, cultured for 24 hours, and subjected to the deficient condition in the DMEM medium from which FBS was removed for about 24 hours.
24 hours later, following the treatment with TGF-β at a concentration of 5 ng/ml, fibrosis of cells was induced for 6 hours. Then, the cells were treated with pheophorbide a obtained in Preparation Example 2 or the therapeutic agent for pulmonary fibrosis and further cultured for 18 hours. Then, the negative control group was treated with nothing, the positive control group was treated with TGF-β alone at a concentration of 5 ng/ml, and the experimental groups were treated with TGF-β at a concentration of 5 ng/ml and 6 hours later, with pheophorbide a at a concentration of […] or 5 μM, nintedanib at a concentration of 1 μM, and pirfenidone at a concentration of 1 mM, respectively.
After 18 hours, the culture medium was removed and the cells were washed twice by adding a PBS buffer solution, and 100 μl of RIPA buffer solution (150 mM NaCl, 1% NP-40, 0.5% Deoxycholic acid, 0.1% SDS, 50 mM Tris pH 7.5) containing a protease inhibitor was added thereto directly. 10 minutes later, the cells were recovered using a scraper and transferred to a microtube and centrifuged at about 12,000×g for 10 minutes.
as §1, with “kit. Each sample with the same amount of protein was subjected to electrophoresis, and then Western blotting was performed.” for “kit.”

[3] = system: pulmonary fibrosis induced by bleomycin (BLM) in C57BL/6NCr10ri mice; test: Bleomycin-induced pulmonary fibrosis model mice; format: in vivo; settings: oral once daily Day 1 to Day 21, 1.25-80 mg/kg
Protocol: Mice were weighed and divided into total seven groups, and then administered intratracheally with sterile physiological saline in the vehicle control group and with BLM in the other groups than the vehicle control group on Day 1 to induce pulmonary fibrosis. Then, from Day 1 to Day 21, DMSO (sigma D2650-5X) devoid of the effective substance was administered to the vehicle control group and the negative control group (fibrosis control).
In addition, T1 to T4 groups and the positive control group were orally administered with the effective substance (pheophorbide a) and nintedanib, respectively, once daily. […]
Following the administration, the death and the moribund status were observed once daily, and general symptoms such as appearance and behavioral changes were observed twice daily. […] Body weight was measured 7 times in total (Day 1, 2, 4, 8, 11, 15 and 18) during the administration and once on the autopsy day.
On Day 22, the animals were euthanized by isoflurane inhalation and subjected to autopsy. […] The organ weight ratio of the extracted lungs was calculated by using the following calculation formula. […]
The results of the experiments were expressed by the mean and the standard deviation and statistically analyzed using Pristima System or Statistical Analysis System (SAS/STAT).

Question: What does the source list for pheophorbide a?
Answer: expression of collagen 1A, fibronectin, and smooth muscle actin proteins induced by TGF-β [1]: inhibited; expression of the α-SMA, collagen 1A, and fibronectin induced by TGF-β [2]: remarkably inhibited; anti-fibrotic effect as compared with the negative control group ([3]; BLM 1.8 mg/kg intratracheal, mice): anti-fibrotic effect; anti-fibrotic effect as compared with the positive control group (nintedanib) ([3]; nintedanib 60 mg/kg, BLM mice): significant anti-fibrotic effect
